Legend:
[1] = molecular target: T1, UDP-glucuronosyltransferase 1A1 (Homo sapiens, UniProt P22309); test: Inhibition of human recombinant UGT1A1 expressed in HEK293 cells assessed as reduction in estradiol 3-glucuronidation by LC-MS/MS method; type: ADME, cell-based
T1 sequence (P22309 whole entry): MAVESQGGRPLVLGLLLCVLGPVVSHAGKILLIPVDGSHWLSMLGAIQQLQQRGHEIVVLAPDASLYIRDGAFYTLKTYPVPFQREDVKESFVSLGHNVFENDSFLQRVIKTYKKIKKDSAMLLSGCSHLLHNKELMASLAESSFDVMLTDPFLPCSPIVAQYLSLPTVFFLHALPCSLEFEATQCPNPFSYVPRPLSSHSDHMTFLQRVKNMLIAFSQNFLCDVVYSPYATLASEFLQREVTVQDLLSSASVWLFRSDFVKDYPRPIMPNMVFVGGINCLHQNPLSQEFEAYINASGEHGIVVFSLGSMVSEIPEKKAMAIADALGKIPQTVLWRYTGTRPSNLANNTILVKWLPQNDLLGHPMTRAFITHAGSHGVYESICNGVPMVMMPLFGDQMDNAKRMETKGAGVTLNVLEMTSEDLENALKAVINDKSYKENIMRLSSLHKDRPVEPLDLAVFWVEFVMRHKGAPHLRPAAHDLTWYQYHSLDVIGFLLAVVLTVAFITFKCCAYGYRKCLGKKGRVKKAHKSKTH

[2] = molecular target: T1, UDP-glucuronosyltransferase 1A1; test: Inhibition of human recombinant UGT1A1 expressed in HEK293 cells assessed as reduction in bilirubin glucuronidation by LC-MS/MS method; type: ADME, cell-based
[3] = molecular target: T1, UDP-glucuronosyltransferase 1A1; test: Activation of human recombinant UGT1A1 expressed in HEK293 cells assessed as increase in estradiol 3-glucuronidation at 6.25 uM by LC-MS/MS method; type: ADME, cell-based; settings: hek293, 6.25 µM
[4] = molecular target: T1, UDP-glucuronosyltransferase 1A1; test: Inhibition of human recombinant UGT1A1 expressed in HEK293 cells assessed as reduction in estradiol 3-glucuronidation at 50 uM using >15 uM estradiol by LC-MS/MS method; type: ADME, cell-based; settings: hek293, 50 µM
[5] = molecular target: T1, UDP-glucuronosyltransferase 1A1; test: Activation of human recombinant UGT1A1 expressed in HEK293 cells assessed as increase in estradiol 3-glucuronidation by LC-MS/MS method relative to untreated control; type: ADME, cell-based
[6] = molecular target: T1, UDP-glucuronosyltransferase 1A1; test: Activation of human recombinant UGT1A1 expressed in HEK293 cells assessed as increase in estradiol 3-glucuronidation at 6.25 uM using 4 uM estradiol by LC-MS/MS method relative to untreated control; type: ADME, cell-based; settings: hek293, 6.25 µM
[7] = molecular target: T2, UGT1A1 (Homo sapiens, UniProt P22309); test: Activation of human recombinant UGT1A1 expressed in HEK293 cells assessed as increase in estradiol 3-glucuronidation using 7.5 uM estradiol by LC-MS/MS method relative to untreated control; type: ADME, cell-based; settings: probe estradiol (3-glucuronidation)
T2 sequence (P22309 whole entry): T1 sequence (P22309 whole entry)

[8] = molecular target: T1, UDP-glucuronosyltransferase 1A1; test: Activation of human recombinant UGT1A1 expressed in HEK293 cells assessed as increase in estradiol 3-glucuronidation using 15 uM estradiol by LC-MS/MS method relative to untreated control; type: ADME, cell-based
[9] = molecular target: T1, UDP-glucuronosyltransferase 1A1; test: Inhibition of human recombinant UGT1A1 expressed in HEK293 cells assessed as reduction in estradiol 3-glucuronidation using 4 to 75 uM estradiol by LC-MS/MS method; type: ADME, cell-based
[10] = substrate: CCc1c2c(nc3ccc(O)cc13)-c1cc3c(c(=O)n1C2)COC(=O)[C@]3(O)CC; test: Drug metabolism assessed as UGT1A1 (unknown origin)-mediated compound glucuronidation; type: ADME, Homo sapiens

Cc1nnc(C(=O)NC(C)(C)c2nc(C(=O)NCc3ccc(F)cc3)c(O)c(=O)n2C)o1
IC50 ([1]; read-out: IC50): 190 µM | IC50 [2]: 170 µM

Oc1cccc2ccccc12 [1-NAPHTHOL]
IC50 ([1]; read-out: IC50): 280 µM | IC50 [2]: 240 µM

O=c1c(-c2ccc(O)cc2)coc2cc(O)ccc12 [DAIDZEIN]
Activity [3]: Active | inhibition (INH) [4]: Active | Activity [5]: Active | Activity [6]: 392% | IC50 ([1]; read-out: IC50): 120 µM | IC50 [2]: 7.3 µM

O=c1cc(-c2ccccc2)oc2cc(O)c(O)c(O)c12 [BAICALEIN]
IC50 ([1]; read-out: IC50): 4.4 µM | IC50 [2]: 7 µM

C#C[C@]1(O)CC[C@H]2[C@@H]3CCc4cc(O)ccc4[C@H]3CC[C@@]21C [ETHINYL ESTRADIOL]
Activity [7]: ≤ 140% | Activity [5]: Active | Activity [8]: 128% | IC50 ([1]; read-out: IC50): 44 µM | IC50 [2]: 21 µM

CC(=O)N1CCN(c2ccc(OCC3COC(Cn4ccnc4)(c4ccc(Cl)cc4Cl)O3)cc2)CC1 (configuration not stated) [KETOCONAZOLE]
IC50 ([1]; read-out: IC50): 13 µM | IC50 [2]: 27 µM

CC(C)=CCC/C(C)=C/CC/C(C)=C/CO [FARNESOL]
IC50 ([1]; read-out: IC50): 40 µM | IC50 [2]: 47 µM

O=C1NC(=O)C(c2ccccc2)(c2ccc(O)cc2)N1 (configuration not stated)
IC50 ([1]; read-out: IC50): 110 µM | IC50 [2]: 120 µM

O=C1c2ccc(O)cc2C(=O)c2ccc(O)cc21
IC50 ([1]; read-out: IC50): 4 µM | IC50 [2]: 3.6 µM

N[C@@H](Cc1cc(I)c(Oc2cc(I)c(O)c(I)c2)c(I)c1)C(=O)O [LEVOTHYROXINE]
IC50 ([1]; read-out: IC50): 5.6 µM | IC50 [2]: 4.9 µM

Nc1nc2ccc(OC(F)(F)F)cc2s1 [RILUZOLE]
IC50 ([1]; read-out: IC50): 160 µM | IC50 [2]: 180 µM

O=C(O)c1cccnc1Nc1cccc(C(F)(F)F)c1 [NIFLUMIC ACID]
IC50 ([1]; read-out: IC50): 13 µM | IC50 [2]: 53 µM

Cc1cc(=O)oc2cc(O)ccc12 [HYMECROMONE]
IC50 ([1]; read-out: IC50): 100 µM | IC50 [2]: 100 µM

CCc1c2c(nc3ccc(O)cc13)-c1cc3c(c(=O)n1C2)COC(=O)[C@]3(O)CC [7-ETHYL-10-HYDROXYCAMPTOTHECIN]
inhibition (INH) [9]: 40% | IC50 ([1]; hek293): Not Active | IC50 [2]: 360 µM

B1: UDP-glucuronosyltransferase 1A1 (Homo sapiens) (protein)
chain: T1 sequence (P22309 whole entry)
Km [10]: 25 µM

— ChEMBL document CHEMBL3526014, “Correlation between bilirubin glucuronidation and estradiol-3-gluronidation in the presence of model UDP-glucuronosyltransferase 1A1 substrates/inhibitors” (Drug Metab Dispos, 2011)
